Laboratory results from patent publication US5856480A, “Optically active compound” (Nippon Soda Co., Ltd., priority 1994, dated 1999).

Key:
[1] = Test on Stability (remaining rate by HPLC after storage at 80° C.); type: physicochemical; details: for Remaining Rate (%), 0 day: 80° C.; for Remaining Rate (%), 0 day / Remaining Rate (%), After 4 days: sealed vial, HPLC; for Remaining Rate (%), After 4 days: after 4 days at 80° C., 5760 min
Protocol: To 30 ml of ethanol, was dissolved 2 g of (R)-(-)-4,5-dihydro-5-methyl-6-[4-[(2-propyl-3-oxo-1-cyclohexenyl) amino]phenyl]-3(2H)-pyridazinone under heating, and the solution was place for cooling under room temperature. After condensing the solvent of the solution under reduced pressure, the solution was then dried under reduced pressure by using a vacuum pump, thereby affording 1.5 g of the noncrystalline powder of said compound of which melting point being of from 102° to 106° C.
Each 10 mg of the noncrystalline powder obtained as described above and the crystalline form obtained in the Example 2 were weighed precisely, placed in a 20 ml volume vial then sealed, respectively, and preserved for 4 days at 80° C. Then, the vials were cooled to room temperature, and subsequently the determination of the remaining rate (%) of the test compounds were conducted by using high performance liquid chromatography (HPLC).
Column: TSK-gel 80 TM 4.6 mm I.D×250 mm (Manufactured by Tosoh Corporation)
Mobile phase: Mixture of acetonitrile and distillated water (Combining rate, 60/40)
Flow Speed: 1.0 ml/min., Temperature: 40° C., Wavelength for Detection: 254 nm

[2] = Residue of Solvent (water by Karl Fischer, ethanol by GC); type: physicochemical; details: for Water Content (%): Karl Fischer moisture meter; for removal of remaining solvent by drying (in words): as demonstrated in Table 4; for Ethanol Content (%): gas chromatography, sample in DMSO
Protocol: By using the same noncrystalline powder and the crystalline form as the ones used in the Test Example 2, the amount of remaining solvent was analyzed.
Each 50 mg of the noncrystalline powder and the crystalline form were weighed precisely, on which water content was determined by using a Karl Fischer moisture meter, respectively. Whereas, each 50 mg of the noncrystalline powder and the crystalline form were weighed and dissolved in dimethyl sulfoxide (DMSO), respectively, and those solution were adjusted to a volume of 50 ml, respectively. A 2 μl portion out of the 50 ml solution was used for determining the ethanol content in the test sample by using gas chromatography (GC), respectively.
N2 : 25 ml/min, Air: 0.6 kg/cm^2, H2 : 0.6 kg/cm^2
Temperature : 180° C. at Column; 220° C. at Injection site, 220° C. at Detection site.

[3] = tested on: platelet aggregation; assay: Inhibitory effect on platelet aggregation, overall statement; type: cell-based, rabbits; details: same procedure as Test Example 1; crystalline compound of Example 2
Protocol: In vitro inhibitory activity of the compound of the present invention was evaluated on platelet aggregation each induced by adenosine diphosphate (ADP), collagen, arachidonic acid, U-46619 and thrombin, respectively, by using an aggregation meter (type: hematracer PAT-606, manufactured by Niko bioscience Co., Ltd). 0.38% citric acid-containing blood collected from rabbits was centrifuged at 1,200 rpm for 15 min. to thereby obtain platelet rich plasma (hereinafter referred to as PRP). The PRP obtained was further centrifuged at 3,500 rpm for 10 min., and the supernatant was used as platelet poor plasma (hereinafter referred to as PPP). […] Then, each 22 μl of the said aggregation-inducing agents, ADP, collagen, U-46619 and thrombin, and 2.2 μl of arachidonic acid, were added thereto, respectively, then platelet aggregation was measured for 5 min., except for collagen, for which the measurement was conducted for 10 min. The inhibitory effect on platelet aggregation was expressed as inhibition rate (%) respective to the maximum aggregation rate obtained in the control plot. […]

[4] = tested on: platelet aggregation induced by U-46619; assay: Inhibitory effect on platelet aggregation induced by U-46619, in vitro, PRP; type: cell-based, rabbits; details: Oryctolagus cuniculus, 10 μM U-46619, rabbit PRP, 3 min pre-incubation, measured 5 min, read-out: Inhibition of Platelet Aggregation (IC50), U-46619
Protocol: (§1) In vitro inhibitory activity of the compound of the present invention was evaluated on platelet aggregation each induced by adenosine diphosphate (ADP), collagen, arachidonic acid, U-46619 and thrombin, respectively, by using an aggregation meter (type: hematracer PAT-606, manufactured by Niko bioscience Co., Ltd). 0.38% citric acid-containing blood collected from rabbits was centrifuged at 1,200 rpm for 15 min. to thereby obtain platelet rich plasma (hereinafter referred to as PRP). The PRP obtained was further centrifuged at 3,500 rpm for 10 min., and the supernatant was used as platelet poor plasma (hereinafter referred to as PPP). The platelets in the PRP were prepared by dilution with PPP to a concentration of 2 to 5×10^8 cells/ml, and 10 μM of ADP, 20 μg/ml of collagen, 200 μg/ml of arachidonic acid, 10 μM of U-46619 and 0.5 U/ml of thrombin are used for the induction of platelet aggregation, respectively, where all of those concentrations are expressed in the final concentration. The test compound was dissolved in dimethyl sulfoxide (DMSO), and to 0.2 μl of the solution thus obtained, was added 0.2 ml of the sample of PRP prepared as described above, then the solution was placed for pre-incubation for 3 min. Then, each 22 μl of the said aggregation-inducing agents, ADP, collagen, U-46619 and thrombin, and 2.2 μl of arachidonic acid, were added thereto, respectively, then platelet aggregation was measured for 5 min., except for collagen, for which the measurement was conducted for 10 min. The inhibitory effect on platelet aggregation was expressed as inhibition rate (%) respective to the maximum aggregation rate obtained in the control plot. [formula]
(§2) A dose-response curve was prepared, and from which IC50, a dose attainable 50% inhibition of platelet aggregation, was determined.

[5] = tested on: platelet aggregation induced by collagen; assay: Inhibitory effect on platelet aggregation induced by collagen, in vitro, PRP; type: cell-based, rabbits; details: Oryctolagus cuniculus, 20 μg/ml collagen, rabbit PRP, 3 min pre-incubation, measured 10 min, read-out: Inhibition of Platelet Aggregation (IC50), Collagen
Protocol: as §1, §2

[6] = tested on: platelet aggregation induced by thrombin; assay: Inhibitory effect on platelet aggregation induced by thrombin, in vitro, PRP; type: cell-based, rabbits; details: Oryctolagus cuniculus, 0.5 U/ml thrombin, rabbit PRP, 3 min pre-incubation, measured 5 min, read-out: Inhibition of Platelet Aggregation (IC50), Thrombin
Protocol: as §1, §2

[7] = tested on: platelet aggregation induced by adenosine diphosphate (ADP); assay: Inhibitory effect on platelet aggregation induced by ADP, in vitro, PRP; type: cell-based, rabbits; details: Oryctolagus cuniculus, 10 μM ADP, rabbit PRP, 3 min pre-incubation, measured 5 min, read-out: Inhibition of Platelet Aggregation (IC50), ADP
Protocol: as §1, §2

[8] = tested on: platelet aggregation induced by arachidonic acid; assay: Inhibitory effect on platelet aggregation induced by arachidonic acid, in vitro, PRP; type: cell-based, rabbits; details: Oryctolagus cuniculus, 200 μg/ml arachidonic acid, rabbit PRP, 3 min pre-incubation, measured 5 min, read-out: Inhibition of Platelet Aggregation (IC50), Arachidonic Acid
Protocol: as §1, §2

| SMILES | Remaining Rate (%), 0 day [1] [%] | stability (in words) ([1]; 4 days at 80° C., crystalline form versus noncrystalline powder) | Remaining Rate (%), After 4 days [1] [%] | Water Content (%) [2] [%] | removal of remaining solvent by drying (in words) [2] | Ethanol Content (%) [2] [%] | inhibitory effect on platelet aggregation (in words) [3] | IC50 [4] [µM] | IC50 [5] [µM] | IC50 [6] [µM] | IC50 [7] [µM] | IC50 [8] [µM] |
| --- | --- | --- | --- | --- | --- | --- | --- | --- | --- | --- | --- | --- |
| CCCC1=C(Nc2ccc(C3=NNC(=O)C[C@H]3C)cc2)CCCC1=O [Crystalline form, (R)-(-)-4,5-dihydro-5-methyl-6-[4-[(2-propyl-3-oxo-1-cyclohexenyl)amino]phenyl]-3(2H)-pyridazinone] | 100 | superior than that of the noncrystalline powder | 96 | 0.2 | easy to dry | 0.2 | excellent inhibitory effect on platelet aggregation similar to the effect of the noncrystalline compound, (R)-(-)-(I) | – | – | – | – | – |
| CCCC1=C(Nc2ccc(C3=NNC(=O)C[C@H]3C)cc2)CCCC1=O [Noncrystalline powder, (R)-(-)-4,5-dihydro-5-methyl-6-[4-[(2-propyl-3-oxo-1-cyclohexenyl)amino]phenyl]-3(2H)-pyridazinone] | 100 | – | 58 | 1.3 | difficult to completely remove the remaining solvent | 4.3 | – | – | – | – | – | – |
| CCCC1=C(Nc2ccc(C3=NNC(=O)C[C@H]3C)cc2)CCCC1=O (single isomer, unassigned) [(R)-(-)-(I)] | – | – | – | – | – | – | – | 0.38 | 2.5 | 1.5 | 2.9 | 0.82 |
| CCCC1=C(Nc2ccc(C3=NNC(=O)CC3C)cc2)CCCC1=O (racemic) [(±)-(I), 4,5-dihydro-5-methyl-6-[4-[(2-propyl-3-oxo-1-cyclohexenyl)amino]phenyl]-3(2H)-pyridazinone] | – | – | – | – | – | – | – | 1.5 | 3.5 | 3 | 4.5 | 1.7 |
| CCCC1=C(Nc2ccc(C3=NNC(=O)C[C@@H]3C)cc2)CCCC1=O [(S)-(-)-(I)] | – | – | – | – | – | – | – | > 100 | 1010 | 560 | 780 | 290 |
